# Assay results reported in patent US11155576B2, “Synthetic peptides, enzymatic formation of pericellular hydrogels/nanofibrils, and methods of use” (BRANDEIS UNIVERSITY, priority 2014, dated 2021).
# Assays:
# HeLa cells [1] = test: Confocal microscopy, Congo red/DAPI staining, HeLa; type: cell-based, human; conditions: 280 μM, 12 hours
# Method: (§1) Cells in exponential growth phase were seeded in a glass bottomed culture chamber at 2×10^4 cells/well. Cells were allowed to attach for 24 hours at 37° C., 5% CO2. The culture medium was removed, and replaced with culture medium containing D-2a at 280 μM. Following 12 hours of incubation, cells were washed 3 times with PBS prior to being stained with 0.1 mg/mL Congo red and 0.6 μM DAPI in PBS buffer (30 minutes at 37° C. in the dark). Next, cells were rinsed three times with PBS, and then kept in PBS for imaging.
# Pericellular nanofibrils and cellular nuclei can be visualized using Congo red and DAPI, respectively (Kapuscinski, Biotech. Histochem. 70:220-233 (1995); Binder et al., Angew. Chem. Int. Ed. 45:7324-7328 (2006), each of which is hereby incorporated by reference in its entirety).
# MES-SA cells = test: Pericellular hydrogel/nanonets on MES-SA cells (Congo red/DAPI); type: cell-based; conditions: 280 μM, 12 hours
# Method: (§2) FIG. 11 illustrates overlaid and 3D stacked z-scan images of Congo red and DAPI stained MES-SA and MES-SA/Dx5 cells treated with either 280 μM D-2a (upper panel) or medium alone (control, lower panel) for 12 hours. Scale bar=[…]. White dots outline the cells.
# as §1
# [2] = Cell viability assay (MTT), Ect1/E6E7; type: cell-based; conditions: human, Ect1/E6E7 cells, read-out: Cells remaining viable
# Method: Cells in exponential growth phase were seeded in a 96 well plate at a concentration of 2×10^4 cells/well. The cells were allowed to attach to the wells for 24 hours at 37° C., 5% CO2. The culture medium was removed and 100 μL culture medium containing compounds (immediately diluted from fresh prepared stock solution of 10 mM) at gradient concentrations (0 μM as the control) was placed into each well. After culturing at 37° C., 5% CO2 for 48 hours, each well was added by 10 μL of 5 mg/mL MTT (3-(4,5-dimethylthiazoL-2-yl)-2,5-diphenyltetrazolium bromide), and the plated cells were incubated in the dark for 4 hours. 100 μL 10% SDS with 0.01M HCl was added to each well to stop the reduction reaction and to dissolve the purple. After overnight incubation of the cells at 37° C., the OD at 595 nm of the solution was measured in a microplate reader. Data represent the mean±standard deviation of three independent experiments.
# [3] = system: secretory phosphatases present in HeLa cell conditioned medium; test: Hydrogelation in HeLa cell conditioned medium; type: biochemical, human; conditions: 48 hours
# Method: 2×10^5 of cells in exponential growth phase were seeded in a 35 mm Petri dish with 1 mL complete culture medium. Following overnight incubation, 1 mL of new medium was replaced and incubated for 24 h at 5% CO2, 37° C. The medium was next removed and centrifuged at 10,000 rpm for 5 minutes. The suspension was placed into a 1.5 mL Eppendorf® tube and stored at −20° C. Stored conditioned medium was thawed and warmed to 37° C. in water bath immediately before use.
# HeLa cell conditioned medium (“CM”) dephosphorylates D-2a to form D-2b nanofibrils.
# MES-SA/Dx5 cells [4] = test: MES-SA/Dx5 tumor model in nude mice; type: in vivo; conditions: subcutaneous and peritumoral, 800 μg dose (~32 mg/kg), 6 times every 3 days
# Method: Nine nude mice were used for experiments to define the tumor growth curve. 1×10^7 MES-SA/Dx5 cells were implanted into the mice via […] using a 25 G needle. Three of the tumor-bearing mice were used to define the tumor growth curve with control treatment, and six mice were given D-2a. The mice were injected subcutaneously and peritumorally (6 times, every 3 days starting at Day 1) with either 100 μL of D-2a at 8 μg/μL (800 μg dose or ˜32 mg/kg) in PBS buffer (experimental) or 100 μL of PBS buffer (control). Tumor volume measurements were made every three days, also starting on Day 1. Volume of tumors was measured by caliper.
# HeLa cells [5] = test: Pericellular hydrogelation on HeLa cells (optical images); type: cell-based, human
# Method: An 11.2 mM (8.09 mg/mL) stock solution of D-2a was prepared in ddH2O. The pH was adjusted to 7.4 using 1N NaOH. 2×10^5 cells in exponential growth phase were seeded in 35 mm Petri dish with 1 mL complete culture medium. Following overnight incubation, the medium was replaced with 1 mL of medium containing D-2a (diluted from the stock solution immediately prior to use). Petri dishes were incubated at 37° C. for two hours. Next, dishes were removed from the incubator and titled on a bench to visualize the pericellular hydrogel. Prior to co-incubation with phosphatase inhibitors, cells were washed three times with medium containing Pierce phosphatase inhibitor cocktail (Thermo) (contains sodium floride, sodium orthovanadate, sodium pyrophosphate, and beta-glycerophosphate). Next, 1 mL of medium containing both the inhibitor cocktail and D-2a was applied to the cells.
# MES-SA/dx5 cells [6] = test: Pericellular hydrogel/nanonets on MES-SA/dx5 cells (Congo red/DAPI); type: cell-based, human; conditions: 280 μM, 12 hours
# Method: as §2, §1
# active Caspase 3 = test: Apoptosis pathway assay (ELISA), active Caspase 3; type: cell-based, human; conditions: HeLa cells, 280 μM, at 24 and 32 hours of incubation
# Method: The apoptosis pathway was evaluated using the PathScan® Apoptosis Multi-Target Sandwich ELISA Kit (Cell Signaling Technology) following the supplied protocol. Cells in exponential growth phase were seeded in a 6 cm Petri dish at a concentration of 10×10^5 cells/dish (5 dishes). Cells were allowed to attach to the wells for 24 hours at 37° C., 5% CO2. The culture medium was removed and 5 mL medium containing 280 μM D-2a (immediately diluted from fresh prepared stock solution of 11.2 mM) was placed into each dish. At 0, 6, 12, 24, or 32 hours, the medium was removed and cells were washed three times with cold PBS buffer. 0.9 mL lysis buffer was used to lyse cells in each dish, and 0.9 mL of diluents buffer was used to dilute each of the cell lysate. The lysate was incubated in the provided 96 well plate at 4° C. for 24 hours.
# ELISA was used to quantify the amount of several key apoptosis signal molecules over time in the HeLa cells incubated with 280 μM D-2a (FIG. 3E).
# HeLa cells [7] = test: LC-MS composition of pericellular hydrogel/nanofibrils and suspension medium of HeLa cells; type: in vitro ADME, human
# [8] = HeLa cells incubated with precursor at 560 μM at 37° C. for 12 hours
structure (smiles),measurement,setting,value
"O=C(Cc1ccc2ccccc2c1)N[C@H](Cc1ccccc1)C(=O)N[C@H](Cc1ccccc1)C(=O)N[C@H](Cc1ccc(OP(=O)(O)O)cc1)C(=O)O [D-2a, Nap-D-Phe-D-Phe-D-Tyr(PO3H2)]",Congo red fluorescence on cells,HeLa cells [1],fluorescence (red) that outlines the cell shape
same,DAPI entry into cells,HeLa cells [1],DAPI is unable to enter
same,Pericellular hydrogel/nanonets formation,MES-SA cells,forms pericellular hydrogel/nanonets
same,"viability at 48 h, 280 µM",[2],> 60%
same,Hydrogel formation in HeLa cell conditioned medium,[3]; 140 μM,fails to form a hydrogel
same,Hydrogel formation in HeLa cell conditioned medium,[3]; 280 μM,completely transforms from a solution to a hydrogel
same,Hydrogel formation in HeLa cell conditioned medium,[3]; 560 μM,completely transforms from a solution to a hydrogel
same,Day by which statistically significant differences between experimental and control groups were observed,MES-SA/Dx5 cells [4],≤ 13 days
same,Relative tumor volume / tumor growth,MES-SA/Dx5 cells [4],inhibited tumor growth
same,Pericellular hydrogel formation on HeLa cells,"HeLa cells [5]; 140 μM, 2 hours at 37° C.",Little hydrogelation
same,Pericellular hydrogel formation on HeLa cells,"HeLa cells [5]; 280 μM, 2 hours at 37° C.",formation of a hydrogel-like soft material (hydrogel) on the cell surface
same,Pericellular hydrogel formation on HeLa cells,"HeLa cells [5]; 560 μM D-2a in the presence of ALP (0.1 U/mL), 2 hours",hardly any pericellular hydrogelation
same,Pericellular hydrogel formation on HeLa cells,"HeLa cells [5]; 560 μM D-2a with phosphatase inhibitors (Pierce), 2 hours",prevent formation of the pericellular hydrogel
same,Pericellular hydrogel formation on HeLa cells,"HeLa cells [5]; 560 μM, 2 hours at 37° C.",formation of a hydrogel-like soft material (hydrogel) on the cell surface
same,Pericellular hydrogel/nanonets formation,MES-SA/dx5 cells [6],forms pericellular hydrogel/nanonets
same,Amount of active Caspase 3,active Caspase 3,increase significantly
same,D-2b in pericellular hydrogel,HeLa cells [7]; [8],2053.9 µM
same,D-2b in suspension medium,HeLa cells [7]; [8],502.5 µM
same,Concentration of D-2b in the hydrogel (LC-MS),"HeLa cells [7]; hydrogel of FIG. 2A, HeLa monolayers treated with 500 μM D-2a as printed",approximately 2.05 mM
